For one data set, the system named is Wiga rats. Put plainly: Induction of mydriasis (MYD). The conditions noted are these: Rattus norvegicus, pupil diameter >25 units, 1-3 h post-administration. It is filed as in vivo. On the procedure: 3) Induction of Mydriasis
The pupil diameter of Wiga rats was measured with a microscopic micrometer (1 unit=1/24 mm). Criteria for drug-induced effects: pupil diameter >25 units for mydriasis (in controls: 1.9%) 1, 2 or 3 h post-administration of the test compound (wherein the maximum pupil diameter over the full 3 h period is reported).

The target in another data set is T1, human mGlu2 receptor (Homo sapiens, UniProt Q14416).
T1 construct: expressed in transfected cells; host or cells: CHO cells
The experiment in a line: [35S]GTPγS binding assay (mGluR2 negative allosteric modulation, glutamate ~EC80 60 μM). It is filed as biochemical. The protocol:
1) [^35S]GTPγS Binding Assay
[^35S]GTPγS Binding Assay
Total reaction volume was 200 μl. […] Membrane-bound radioactivity was counted in a Topcount.
In general terms: GTPγS is a poorly hydrolysed GTP analogue; its binding reports G protein activation.

The subject of another data set is rats. Put plainly: Reversal of the effect of the mGluR2 PAM JNJ-42153605-induced inhibition of scopolamine-induced hyperlocomotion (SCOP JNJ-42153605). In kind it is in vivo, rat. The note with it: Rattus norvegicus, rats, reversal criterion total distance >1500 cm. The gist of the method: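 Rats got test compound or vehicle 60 min pre-recording, JNJ-42153605 (20 mg/kg, i.v.) 30 min pre-recording, then scopolamine (0.16 mg/kg, i.v.) just before. Total distance over the first 30 min was video-tracked; all-or-none reversal criterion: total distance >1500 cm.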

For a further data set, the system named is Male Long Evans rats. The experiment in a line: V-maze test (PCP-disrupted visual-spatial working memory). In kind it is in vivo, rat. The note with it: Co. No. 8 at doses 0.16 and 0.31 mg/kg p.o. 4 h before test, PCP 0.75 mg/kg s.c. 30 min prior to test. An excerpt: Data are reported as Mean±SEM, n=12/group; ANOVA with LSD-post hoc, p vs. familiar arm: *** p<0.001, *<0.05. In FIG. 1, veh means vehicle and CPD means Co. No. 8
The V-maze-test is a two-trial short term visual-spatial working memory task based on spontaneous exploration of a new and a familiar arm in a 2-arm maze (Embrechts et al. (2013) “Longitudinal characterization of the TauPS2APP mouse model of Alzheimer's disease in a two trial discrimination task of visuo-spatial recognition memory”, 45th European Brain and Behaviour Society Meeting 6-9 Sep. 2013, Munich, Abstract P202).
Male Long Evans rats (Janvier, France, body weight 280 to 295 g) were group housed in enriched individually ventilated cages and habituated to environmental conditions for 5 days. After acclimatization, animals were single housed for 4 days until testing. During this period animals were handled for 2 min per day and received sham dosing once a day for 3 days prior to the test. […] The animal's exploration of each arm was automatically quantified using Ethovision XT 7.0 (Noldus, The Netherlands). […] The time spent in the familiar and new arm respectively during the choice session was recorded for 5 min.
Co. No. 8 was evaluated in rats in a series of dose-response studies evaluating doses from 0.16 to 0.63 mg/kg.

Another data set relates to Male Wiga Wistar rats. Put plainly: Reversal of LY-404039-induced decrease of palpebral opening in apomorphine-challenged rats (APO LY-404039). In kind it is in vivo, rat. The conditions noted are these: Rattus norvegicus, apomorphine challenged rats. On the procedure: B) In Vivo Pharmacology 1) Reversal of LY-404039-Induced Decrease of Palpebral Opening in Apomorphine-Challenged Rats.
Male Wiga Wistar rats (Crl:WI; Charles River Germany; 220±40 g) were housed under standard laboratory conditions (21±2° C.; 50-65% relative humidity; light-dark cycle set at 12 h; lights on at 6.00 h) and fasted overnight prior to the start of the experiments (tap water remained available ad libitum). During the test period, they were housed in individual cages. Palpebral opening was scored every 5 min over the first hour after injection of apomorphine (1.0 mg/kg, i.v.) in animals either pretreated or not pretreated with LY-404039 (2.5 mg/kg, s.c.) at 1 h prior to the apomorphine injection. The animals were also pretreated with test compound or solvent at a predefined interval before apomorphine challenge. The score system was: (5) exophthalmos, (4) wide open, (3) open for three-quarters, (2) half open, (1) open for one-quarter, (0) closed. The scores for palpebral opening were cumulated over the 60-min observation period.
In animals receiving apomorphine alone the median palpebral opening is 43 whereas in animals receiving apomorphine and LY-404039, the median palpebral opening is 17.

Molecules are shown by their SMILES.

T1 sequence (Q14416 19-872): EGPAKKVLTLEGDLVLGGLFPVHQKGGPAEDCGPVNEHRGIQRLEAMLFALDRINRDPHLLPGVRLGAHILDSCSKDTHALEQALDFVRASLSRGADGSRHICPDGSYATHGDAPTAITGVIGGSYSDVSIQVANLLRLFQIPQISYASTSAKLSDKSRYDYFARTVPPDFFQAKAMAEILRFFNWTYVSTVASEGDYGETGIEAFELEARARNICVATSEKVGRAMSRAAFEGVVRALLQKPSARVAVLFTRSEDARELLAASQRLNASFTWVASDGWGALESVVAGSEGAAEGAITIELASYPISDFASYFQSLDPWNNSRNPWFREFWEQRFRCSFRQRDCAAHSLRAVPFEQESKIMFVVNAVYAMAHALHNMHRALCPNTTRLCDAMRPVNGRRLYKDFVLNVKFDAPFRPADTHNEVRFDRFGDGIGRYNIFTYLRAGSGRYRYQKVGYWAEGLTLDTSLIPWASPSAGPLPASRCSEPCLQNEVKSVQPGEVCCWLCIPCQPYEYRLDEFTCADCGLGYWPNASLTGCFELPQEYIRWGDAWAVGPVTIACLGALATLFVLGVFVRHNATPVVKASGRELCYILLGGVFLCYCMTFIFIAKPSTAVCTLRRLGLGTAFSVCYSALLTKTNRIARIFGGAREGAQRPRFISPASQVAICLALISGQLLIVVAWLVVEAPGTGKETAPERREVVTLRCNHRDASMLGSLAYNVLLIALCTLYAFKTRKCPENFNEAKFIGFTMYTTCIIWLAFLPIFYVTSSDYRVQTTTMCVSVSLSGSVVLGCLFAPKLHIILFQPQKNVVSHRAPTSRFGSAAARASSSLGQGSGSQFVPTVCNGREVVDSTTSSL

The compound `C[C@H]1CN(c2ccc(C(F)(F)F)cc2)C(=O)c2c(NC(=O)c3ccc(N)nc3)cnn21` [Co. No. 8, 6-Amino-N-[(7S)-7-methyl-4-oxo-5-[4-(trifluoromethyl)phenyl]-6,7-dihydropyrazolo[1,5-a]pyrazin-3-yl]pyridine-3-carboxamide] gave a melting point of 240.39 °C. Moreover, it took a dose of 8.7 mg/kg to reach the 50% effect level in the data set on Wiga rats (PO (oral route)) (ED50). This compound showed a median effective dose (ED50) with Wiga rats (SC (subcutaneous route)) of 7.1 mg/kg. Further, at human mGlu2 receptor (maximal % inhibition relative to the control glutamate response (EC80 glutamate), read-out: GTPγS-hmGluR2 anGT Emax), the Emax is 110%. Moreover, the IC50 at human mGlu2 receptor (membranes from CHO cells transfected with human mGlu2 receptor, glutamate ~EC80 (60 μM), pIC50 = −log IC50 (M), read-out: GTPγS-hmGluR2 anGT pIC50 (converted)) is 2.14e-09 M. Besides, the ED50 in the data set on rats (PO (oral route)) is 0.13 mg/kg. Besides, the median effective dose (ED50) in the data set with rats (SC (subcutaneous route)) worked out at 0.13 mg/kg. The “exploration of the new vs. the familiar arm in the V-maze (reversal of PCP deficit)” value in the data set on Male Long Evans rats is “significantly reversed the PCP deficit”. For the same compound, in the data set with Male Wiga Wistar rats (PO (oral route)), the ED50 is 0.19 mg/kg. In addition, the median effective dose (ED50) in the data set with Male Wiga Wistar rats (SC (subcutaneous route)) amounted to 0.34 mg/kg.

As a reminder, the ED50 is the dose at which the effect has come halfway, by size or by number of responders. One may read the melting point as the temperature, or range, at which the solid turns liquid. In general, Emax refers to the maximal effect, on the per cent scale that the assay sets.

Source of the values: patent US10519162B2, “6,7-dihydropyrazolo[1,5-α]pyrazin-4(5H)-one compounds and their use as negative allosteric modulators of mGluR2 receptors” (Janssen Pharmaceutica NV, priority 2014, dated 2019).
